Tests used:
[1] = biological target: full-length MALT1 protein (Strep-MALT1(1-824)-His) (Homo sapiens (Human), UniProt Q9UDY8); assay: MALT1 Biochemical Protease Assay (Ac-LRSR-AMC substrate); details: 10 nM FL MALT1, 200 μM Ac-LRSR-AMC, 4 h at RT; read-out: MALT1_Biochemical activity (Ac-LRSR-amc) IC50
Procedure: The tetrapeptide LRSR is coupled to AMC (7-amino-4-methylcoumarin) and provides a quenched, fluorescent substrate for the MALT1 protease (SM Biochemicals). […] Test compound concentrations ranged from 30 μM to 0.5 nM using 11 dilution steps (1:3). Background signal was measured from control wells containing assay buffer without enzyme which functions as low control (LC). High control (HC) values were generated using the reaction with enzyme but no compound treatment. Compounds were pre-incubated with MALT1 enzyme for 50 minutes at RT. […] The reaction was subsequently incubated for 4 h at RT and fluorescence was measured.
LC=Median of the low control values
An estimate of the slope of the plot in terms of the Hill coefficient was also obtained. IC50 Calculation:
[formula] With • UB=upper bound • LB=lower bound Used in “Lexis Dose Response Curve Fitting” Version 1.0.

[2] = system: IL6 secretion by TMD8 ABC-DLBCL cells; assay: Human IL6 Mesoscale assay (TMD-8); format: cell-based; details: Homo sapiens, TMD8; TMD-8 cells, 24 h
Procedure: (§1) NFKB signaling regulates the secretion of multiple cytokines, including IL6 and IL10. Secretion of the cytokines IL6 and IL10 by TMD8 or OCI-LY3 ABC-DLBCL cells was measured using a mesoscale assay. Inhibition of NFKB signaling by MALT1 or BTK inhibitors results in a decrease of IL6/10 secretion.
(§2) TMD8 or OCI-LY3 cells were propagated in RPMI-1640 (Sigma Aldrich) supplemented with 10% fetal bovine serum (HyClone), 1 mM sodium pyruvate (Invitrogen), 2 mM L-glutamine (Sigma Aldrich) and 1% PenStrep (Sigma Aldrich). Cell passage number should not exceed 30. Cells should be kept between 0.5-2.5 million cells per mL during culturing and cells should be supplemented every 2-3 days with fresh 50 μM beta-mercaptoenthanol. No beta-mercaptoethanol was used during the mesoscale assay.
(§3) For the Mesoscale assay, 100,000 TMD8 or OCI-LY3 cells were seeded per well into black-colored 96-well plates with clear bottom (Corning #3904) and test compounds were added in 9 dilution steps (1:2) ranging from 15 μM to 58.6 nM (final DMSO concentration 0.3%). DMSO control wells were used to determine the maximum signal (High Control (HC)). Treatment with the BTK inhibitor RN486 in a dose range from 30 nM to 131 pM (9 dilutions of 1:2) served as a positive control for NFKB pathway inhibition and was used to determine the maximum inhibition (Low Control (LC)). Compounds and cells were incubated for 24 h at 37° C. and 5% CO2 (assay volume is 150 μL). After 24 h of incubation 50 μL of the supernatant was transferred to a MSD plate (V-Plex Proinflammation Panel 1 (human) kit, Mesoscale (MSD)) and incubated for 2 h with vigorous shaking (600 rpm) at room temperature. Following incubation, plates were washed 3× with PBS+0.05% Tween-20 and 25 μL detection antibody solution (IL6 & IL10 antibodies in diluent 3 (MSD)) was added per well followed by 2 h of incubation with vigorous shaking (600 rpm) at room temperature. After 3× washes with PBS+0.05% Tween-20, plates were incubated with 150 μL 2× Read Buffer T and read on SECTOR imager.

[3] = system: IL10 secretion by TMD8 ABC-DLBCL cells; assay: Human IL10 Mesoscale assay (TMD-8); format: cell-based; details: Homo sapiens, TMD8; TMD-8 cells, 24 h
Procedure: as §1, §2, §3

Chain of full-length MALT1 protein (Strep-MALT1(1-824)-His) (Q9UDY8 whole entry): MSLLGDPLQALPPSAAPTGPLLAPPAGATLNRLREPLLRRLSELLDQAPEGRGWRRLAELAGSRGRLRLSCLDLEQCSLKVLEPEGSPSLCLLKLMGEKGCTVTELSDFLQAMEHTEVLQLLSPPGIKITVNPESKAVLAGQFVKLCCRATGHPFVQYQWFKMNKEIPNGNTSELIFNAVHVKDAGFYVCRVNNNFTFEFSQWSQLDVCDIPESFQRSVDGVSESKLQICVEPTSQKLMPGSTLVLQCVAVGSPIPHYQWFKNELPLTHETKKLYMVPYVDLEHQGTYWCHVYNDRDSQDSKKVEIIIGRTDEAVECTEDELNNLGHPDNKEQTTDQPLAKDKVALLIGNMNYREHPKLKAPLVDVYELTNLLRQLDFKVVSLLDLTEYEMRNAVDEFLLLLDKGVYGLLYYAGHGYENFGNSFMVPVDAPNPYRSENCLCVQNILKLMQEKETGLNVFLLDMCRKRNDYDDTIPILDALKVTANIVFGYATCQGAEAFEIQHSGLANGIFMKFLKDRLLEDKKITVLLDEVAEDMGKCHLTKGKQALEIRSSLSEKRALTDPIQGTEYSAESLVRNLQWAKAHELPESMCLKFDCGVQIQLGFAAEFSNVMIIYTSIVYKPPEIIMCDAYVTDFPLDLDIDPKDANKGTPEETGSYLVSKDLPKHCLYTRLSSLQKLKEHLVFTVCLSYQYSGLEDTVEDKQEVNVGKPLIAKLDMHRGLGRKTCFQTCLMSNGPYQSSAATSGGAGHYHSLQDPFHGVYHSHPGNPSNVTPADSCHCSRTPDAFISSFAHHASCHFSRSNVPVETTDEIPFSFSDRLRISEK

Compound	IC50 [1]	IC50 [2]	IC50 [3]
O=C(Nc1cnc(-n2nccn2)c(Cl)c1)c1cnn(-c2cnc([C@@H]3CCCO3)c3ccccc23)c1C(F)(F)F (single isomer, unassigned) [Cpd 437, (*S)—N-(5-chloro-6-(2H-1,2,3-triazol-2-yl)pyridin-3-yl)-1-(1-(tetrahydrofuran-2-yl)isoquinolin-4-yl)-5-(trifluoromethyl)-1H-pyrazole-4-carboxamide]	1.78 µM	7.59 µM	2.51 µM
O=C1CO[C@@H](c2ncc(-n3ncc(C(=O)Nc4cnc(-n5nccn5)c(Cl)c4)c3C(F)(F)F)c3ccccc23)C1 (single isomer, unassigned) [Cpd 438, (*R)—N-(5-chloro-6-(2H-1,2,3-triazol-2-yl)pyridin-3-yl)-1-(1-(4-oxotetrahydrofuran-2-yl)isoquinolin-4-yl)-5-(trifluoromethyl)-1H-pyrazole-4-carboxamide]	0.071 µM	6.61 µM	2.14 µM
O=C1CO[C@H](c2ncc(-n3ncc(C(=O)Nc4cnc(-n5nccn5)c(Cl)c4)c3C(F)(F)F)c3ccccc23)C1 (single isomer, unassigned) [Cpd 439, (*S)—N-(5-chloro-6-(2H-1,2,3-triazol-2-yl)pyridin-3-yl)-1-(1-(4-oxotetrahydrofuran-2-yl)isoquinolin-4-yl)-5-(trifluoromethyl)-1H-pyrazole-4-carboxamide]	0.178 µM	4.27 µM	1 µM
O=C(Nc1cnc(-n2nccn2)c(Cl)c1)c1cnn(-c2cccc3nc([C@H]4CCCO4)ccc23)c1C(F)(F)F (single isomer, unassigned) [Cpd 440, (*R)—N-(5-chloro-6-(2H-1,2,3-triazol-2-yl)pyridin-3-yl)-1-(2-(tetrahydrofuran-2-yl)quinolin-5-yl)-5-(trifluoromethyl)-1H-pyrazole-4-carboxamide]	1.58 µM	0.186 µM	0.162 µM
C[C@H](O)c1ncc(-n2ncc(C(=O)Nc3cnc(-n4nccn4)c(Cl)c3)c2C(F)(F)F)c2ccccc12 (single isomer, unassigned) [Cpd 443, (*S)—N-(5-chloro-6-(2H-1,2,3-triazol-2-yl)pyridin-3-yl)-1-(1-(1-hydroxyethyl)isoquinolin-4-yl)-5-(trifluoromethyl)-1H-pyrazole-4-carboxamide]	0.013 µM	0.046 µM	0.05 µM
O=C(Nc1cnc(-c2ncco2)c(Cl)c1)c1cnn(-c2cccc3ncccc23)c1C(F)(F)F [Cpd 91, N-(5-chloro-6-(oxazol-2-yl)pyridin-3-yl)-1-(quinolin-5-yl)-5-(trifluoromethyl)-1H-pyrazole-4-carboxamide]	0.015 µM	0.151 µM	0.155 µM
N#Cc1cc(NC(=O)c2cnn(-c3ccnc4c(F)cccc34)c2C(F)(F)F)cnc1-n1nccn1 [Cpd 92, N-(5-cyano-6-(2H-1,2,3-triazol-2-yl)pyridin-3-yl)-1-(8-fluoroquinolin-4-yl)-5-(trifluoromethyl)-1H-pyrazole-4-carboxamide]	0.019 µM	0.102 µM	0.132 µM
N#Cc1cc(NC(=O)c2cnn(-c3cnnc4ccccc34)c2C(F)(F)F)cnc1-n1nccn1 [Cpd 93, 1-(Cinnolin-4-yl)-N-(5-cyano-6-(2H-1,2,3-triazol-2-yl)pyridin-3-yl)-5-(trifluoromethyl)-1H-pyrazole-4-carboxamide]	0.06 µM	0.447 µM	0.501 µM
N#Cc1cc(NC(=O)c2cnn(-c3nccc4occc34)c2C(F)(F)F)cnc1-n1nccn1 [Cpd 94, N-(5-cyano-6-(2H-1,2,3-triazol-2-yl)pyridin-3-yl)-1-(furo[3,2-c]pyridin-4-yl)-5-(trifluoromethyl)-1H-pyrazole-4-carboxamide]	0.019 µM	0.089 µM	0.105 µM
N#Cc1cc(NC(=O)c2cnn(-c3nncc4ccccc34)c2C(F)(F)F)cnc1-n1nccn1 [Cpd 102, N-(5-cyano-6-(2H-1,2,3-triazol-2-yl)pyridin-3-yl)-1-(phthalazin-1-yl)-5-(trifluoromethyl)-1H-pyrazole-4-carboxamide]	0.042 µM	0.11 µM	0.186 µM
N#Cc1cc(NC(=O)c2cnn(-c3nccn4ccnc34)c2C(F)(F)F)cnc1-n1nccn1 [Cpd 103, N-(5-Cyano-6-(2H-1,2,3-triazol-2-yl)pyridin-3-yl)-1-(imidazo[1,2-a]pyrazin-8-yl)-5-(trifluoromethyl)-1H-pyrazole-4-carboxamide]	1.51 µM	> 15 µM	> 15 µM
O=C(Nc1cnc(-c2ncc[nH]2)c(Cl)c1)c1cnn(-c2cncc3ccccc23)c1C(F)(F)F [Cpd 104, N-(5-chloro-6-(1H-imidazol-2-yl)pyridin-3-yl)-1-(isoquinolin-4-yl)-5-(trifluoromethyl)-1H-pyrazole-4-carboxamide]	0.204 µM	> 15 µM	> 15 µM
N#Cc1cc(NC(=O)c2cnn(-c3cccc4nccnc34)c2C(F)(F)F)cnc1-n1nccn1 [Cpd 105, N-(5-Cyano-6-(2H-1,2,3-triazol-2-yl)pyridin-3-yl)-1-(quinoxalin-5-yl)-5-(trifluoromethyl)-1H-pyrazole-4-carboxamid]	0.058 µM	0.851 µM	0.813 µM
O=C(Nc1cnc(OC(F)F)c(Cl)c1)c1cnn(-c2cncc3ccccc23)c1C(F)(F)F [Cpd 106, N-(5-chloro-6-(difluoromethoxy)pyridin-3-yl)-1-(isoquinolin-4-yl)-5-(trifluoromethyl)-1H-pyrazole-4-carboxamide]	0.447 µM	1.26 µM	0.617 µM
O=C(Nc1cnc(N2CCCC2=O)c(Cl)c1)c1cnn(-c2cncc3ccccc23)c1C(F)(F)F [Cpd 107, N-(5-chloro-6-(2-oxopyrrolidin-1-yl)pyridin-3-yl)-1-(isoquinolin-4-yl)-5-(trifluoromethyl)-1H-pyrazole-4-carboxamide]	1.29 µM	3.47 µM	1.18 µM
Cc1cc2nccc(-n3ncc(C(=O)Nc4cnc(-n5nccn5)c(C#N)c4)c3C(F)(F)F)c2o1 [Cpd 151, N-(5-cyano-6-(2H-1,2,3-triazol-2-yl)pyridin-3-yl)-1-(2-methylfuro[3,2-b]pyridin-7-yl)-5-(trifluoromethyl)-1H-pyrazole-4-carboxamide]	0.214 µM	0.224 µM	0.2 µM
O=C(Nc1ccnc(C(F)(F)F)c1)c1cnn(-c2cccc3c(=O)[nH]ccc23)c1C(F)(F)F [Cpd 158, 1-(1-oxo-1,2-dihydroisoquinolin-5-yl)-5-(trifluoromethyl)-N-(2-(trifluoromethyl)pyridin-4-yl)-1H-pyrazole-4-carboxamide]		> 1.51 µM	0.38 µM
N#Cc1cc(NC(=O)c2cnn(-c3cccc4nc(N)nn34)c2C(F)(F)F)cnc1-n1nccn1 [Cpd 159, 1-(2-amino-[1,2,4]triazolo[1,5-a]pyridin-5-yl)-N-(5-cyano-6-(2H-1,2,3-triazol-2-yl)pyridin-3-yl)-5-(trifluoromethyl)-1H-pyrazole-4-carboxamide]	0.105 µM	> 15.1 µM	0.955 µM
O=C(Nc1cnc(-n2nccn2)c(Cl)c1)c1c(F)nn(-c2cccc3ncccc23)c1C(F)(F)F [Cpd 160, N-(5-chloro-6-(2H-1,2,3-triazol-2-yl)pyridin-3-yl)-3-fluoro-1-(quinolin-5-yl)-5-(trifluoromethyl)-1H-pyrazole-4-carboxamide]	0.389 µM	0.095 µM	0.093 µM

From US10954214B2 (Janssen Pharmaceutica NV, priority 2016, dated 2021)
